Measurements as given in PMC10958225, “Therapeutic potential of orally applied KB-R7943 in streptozotocin-induced neuropathy in rats” (Heliyon, 2024).

Test system: STZ-treated rats with neuropathy
Experiment: Formalin test (0.5% formalin)
Format: in vivo, rat
Procedure: On the day of diabetic state induction, rats were deprived of food for 6 h (from 8 a.m. to 2 p.m.). A single i.p. injection was applied with 55 mg/kg STZ in the ice-cold citrate buffer (0.1 M pH 4.4). The observed polydipsia, polyuria, reduced thriving with lower body weight, and poor coating appearance indirectly indicated the development of diabetes. On day 28, after 6 h of fasting, blood glucose was measured with an Xpress Statstrip Glucometer (Nova Biomedical Corporation, Waltham, MA, USA) from the tail vein. A cut-off value of blood glucose >13 mmol/l was adopted. […] Controls were once i.p. injected with ice-cold citrate buffer 0.1 M pH 4.4 only.
Three animals per cage were housed for the experiment 2 (Fig. 3B). Rats were gently manipulated daily before undertaking the actual behavior tests. One week after adaptation, the Randl-Stellito (R–S) test, cold plate test (CPT), and formalin tests (FT) were performed at baseline. After that, the diabetes model was made with 48 rats. Twelve animals served as controls. Body weight (BW), coat score (CS), CPT, R–S, and FT were evaluated on day 28th post-STZ, and after that, rats were distributed into the treatment groups as follows. • C-Veh – Controls, vehiculum treatment (n = 12) • NP-Veh – STZ-treated rats with neuropathy, vehiculum treatment (n = 12) • NP-KB-R7943 – 5 mg - STZ-treated rats, with neuropathy, KB-R7943 5 mg/kg treatment (n = 12) • NP-KB-R7943 – 10 mg – STZ-treated rats, with neuropathy, KB-R7943 10 mg/kg (n = 12) • NP-AMT – 10 mg - STZ-treated rats, with neuropathy, amitriptyline 10 mg/kg (n = 12).
OraPlus was used as a vehiculum for gavage (16 gauge feeding tube 10 ml/kg) in all rats. KB-R7943 in two doses (5 or 10 mg/kg) or amitriptyline 10 mg/kg was applied once daily until day 49. Behavior tests were performed […] after the oral gavage of the corresponding day, in the afternoon, starting from 2 p.m. […] On day 41, an FST was performed, and at 2 p.m., rats were placed individually for 24 h to assess spontaneous physical activity. After that, on day 42, the same battery of the tests as on day 28 were reassessed.
The formalin test was performed 1 h after the R–S test to decrease the interaction with the mechanical stimulus from the previous test. For the same reason, the left hind paws were injected. A needle (U-100 Insulin Syringe, Beckton and Dickinson, Dublin, Ireland) was used. A low-dose intraplantar injection of formalin 50 mcl 0.5% was done, and rats were placed in individual transparent cases for observation. Two independent observers measured the time spent licking or biting the injected paw, and the first (0–5 min) and the second post-injection phase (20–30 min) were reported in sec.

For N=C(N)SCCc1ccc(OCc2ccc([N+](=O)[O-])cc2)cc1 [KB-R7943, [(2-{4-[(4-nitrophenyl)methoxy]phenyl}ethyl)sulfanyl]methanimidamide], the “effect on formalin test first phase (0–5 min)” value (5 mg/kg p.o. once daily, vs. 10 mg/kg groups) was “weaker effect”, the “effect on formalin test first phase (0–5 min)” value (10 mg/kg p.o. once daily, vs. NP-Veh) was “attenuated” and the “effect on formalin test second phase (20–30 min)” value (amitriptyline 10 mg/kg, KB-R7943 5 and 10 mg/kg p.o. once daily, vs. NPveh, dose-dependent) was “attenuated”.
